Measured values reported in PubChem BioAssay AID179 (DTP/NCI, 2004).
The source made the active and inactive calls.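 The calls were made as follows: active = compounds giving half or more protection of infected cells from virus-caused growth loss, again on retest; inactive = the rest.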 Where a SMILES comes first, the peptide text is derived from it.

Tested on: CEM cells HIV-1 protection, formazan growth assay
Test: NCI AIDS Antiviral Assay
Conditions: for IC50: measured here: growth of uninfected CEM cells
Summary of the method: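 Soluble formazan readout of cell growth; CEM cells ± HIV-1; 5 drug concs. ≥50% protection → retest; ≥50% again = moderately active; reproducible 100% = confirmed active.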

Structure (SMILES) | EC50 | IC50 | outcome
Cc1ccc(N=C2SC(=S)N(CCC[N+](C)(C)C)C2=Nc2ccc(C)cc2)cc1 | > 200 µM | 14.1 µM | 
CC(C)(C)c1cc(CCC(=O)Nc2ccc(Cl)cc2Cl)nc(N)n1 | > 135 µM | > 135 µM | 
O=C(OCC(OC(=O)c1ccccc1)C1CC(C(O)C2CCCCC2)C(=O)O1)c1ccccc1 (stereo not given) | > 200 µM | 21.9 µM | 
O=C1NC(=O)C2C1c1[nH]c3ccccc3c1C1CCCC12 (stereo not given) |  |  | inactive
N#Cc1c(N)c2c(c(-c3ccccc3)c1-c1ccccc1)C(=O)N(O)C2=O | > 200 µM | 44.7 µM | 
Cc1ccc(N2C=Nn3c(nc4sc5c(c4c3=O)CCCC5)C2)cc1 | 25.1 µM | 42.7 µM | 
COc1ccc(C2SCC(=O)N2c2ccc(-n3c(-c4ccccc4)nc4ccccc4c3=O)cc2)cc1 (stereo not given) | > 200 µM | 158 µM | 
NC(=O)NC1C(C(N)=O)N(Cc2ccccc2)C(=O)N1Cc1ccccc1 (stereo not given) | > 97.7 µM | > 97.7 µM | 
Cc1cc(=O)oc2cc(OCc3nc4ccccc4c(=O)[nH]3)ccc12 | > 107 µM | > 107 µM | 
O=C(c1ccc(Cl)cc1)N(C(=S)N1CCN(c2ccccn2)CC1)C1CCCCC1 | > 11.7 µM | 8.51 µM | 
Clc1cccc(C=NC23CC4CC(CC(C4)C2)C3)c1Cl | > 200 µM | 13.2 µM | 
NNC(=O)C(=O)N/N=C1/CCCC1C(=O)CCC(=O)Nc1ccc(Cl)cc1 (stereo not given) | > 66.1 µM | > 66.1 µM | 
COc1ccc(C(=O)C(C(=O)CCC(=O)Nc2ccc(Cl)c(Cl)c2)c2ccc(OC)cc2)cc1 (stereo not given) | > 72.4 µM | > 72.4 µM | 
COC(=O)C1=COC(O)C2CCCC12 (stereo not given) | > 1260 µM | 107 µM | 
CCSC(=O)N1c2ccc(OC)cc2C=CC1C#N (stereo not given) | > 0.692 µM | 0.0407 µM | 
CCOC(=O)NC(=O)c1cn(CCN2CCN(C(=O)CNC(=O)CNC(=O)Cn3cc(C(=O)NC(=O)OCC)c(=O)[nH]c3=O)CC2)c(=O)[nH]c1=O |  |  | inactive
Cc1cn([C@H]2C[C@H](N=[N+]=[N-])[C@@H](COC(=O)CCC(=O)OC3CN(Cc4ccccc4)C(=O)N(Cc4ccccc4)C3)O2)c(=O)[nH]c1=O | 0.955 µM | 89.1 µM | 
Cc1ccc2oc(=O)c(C#N)c(C)c2c1 | > 25.1 µM | > 25.1 µM | 
COc1ccc(/C=C/c2nc(=S)[nH][nH]2)cc1OC | > 135 µM | 110 µM | 
Cc1nc2cc(Nc3ccccc3C(=O)O)ccc2s1 | > 631 µM | 158 µM | 
CC(=O)NC1C(OCC(=O)N2CCCC2C(=O)NC(CCC(=O)NCCCCCNc2ccc([N+](=O)[O-])c3[nH]c4ccccc4c(=O)c23)C(N)=O)C(O)C(CO)OC1(C)OCc1ccccc1 (stereo not given) | > 50.1 µM | 1.02 µM | 

Structure (SMILES) | EC50 | IC50 | outcome
CCCCCCNCCCNc1c2cc(OC)ccc2nc2cccc([N+](=O)[O-])c12 | > 2 µM | 0.347 µM | 
O=C(Nc1ccc(Cl)cc1Cl)c1cc2nc3ccccc3c(=O)n2c2ccccc12 | > 100 µM | > 100 µM | 
O=S1CSCS1 (stereo not given) | > 200 µM | > 200 µM | 
S=C1SC2(CCCCCC2)NC2=C1CCCCC2 | > 25.7 µM | 15.8 µM | 
O=c1c(SCc2ccc(Cl)cc2)c(N2CCOCC2)cnn1-c1ccccc1 | > 63.1 µM | 44.7 µM | 
CC(C)Oc1cc2c(c3oc(=O)c4c(c13)CCC4)C(=O)[C@H](C)[C@@H](C)O2 | > 200 µM | 39.8 µM | 
O=C(Nc1ccccc1)c1cc(S(=O)(=O)Nc2n[nH]c(=O)n2-c2ccccc2)c(S)cc1Cl | 89.1 µM | > 200 µM | 
C=CCN1CCC23c4c5ccc(O)c4OC2C(=NN=C2CCC4(O)C6Cc7ccc(O)c8c7C4(CCN6CC=C)C2O8)CCC3(O)C1C5 (stereo not given) | > 200 µM | 10.5 µM | 
CCOC(=O)CSc1[nH]c2nc(C)nc(Cl)c2c1C#N | > 200 µM | > 100 µM | 
O=S(=O)(Nc1nc2ccccc2nc1Nc1cccc2ccccc12)c1ccccc1 | > 200 µM | 15.8 µM | 
CCOC(=O)c1cn(-c2ccccc2)c(=S)n2c1nc1ccccc12 | > 200 µM | 7.59 µM | 
S=c1sc2c(Cl)ncnc2n1-c1ccccc1 | > 67.6 µM | 3.63 µM | 
CC1OC(c2ccc3c(c2O)C(=O)C2=C(C3=O)[C@H]3OC(=O)C[C@H]3O[C@@H]2C)CC(N(C)C)C1O (stereo not given in full) | > 107 µM | 0.0537 µM | 
COC(=O)/C(=N\NC(N)=O)C(C(=O)C=C(C)C)C(=O)C(=O)Nc1ccc(Cl)c(Cl)c1 (stereo not given) | > 550 µM | 457 µM | 
Cc1cccc(-c2nc(-c3cnccn3)n(Cc3ccccc3)n2)c1 | > 200 µM | > 200 µM | 
CCN1C[C@]2(OC(=O)c3ccccc3NC(C)=O)CCC(OC)C34[C@@H]1[C@@](O)(C[C@@H]32)[C@@]1(O)C[C@H](OC)[C@@H]2C[C@@H]4[C@]1(O)C2OC (stereo not given in full) |  |  | inactive
COc1ccc(C2Oc3ccc(O)cc3[C@@H]2C)cc1OC (stereo not given in full) | > 174 µM | > 174 µM | 
CC1(OCc2ccccc2)C(=O)N2C1N(C(=O)OCc1ccccc1)CC2(C)C (stereo not given) | > 251 µM | 53.7 µM | 
CN(CCO)CCC1COc2ccccc2O1 (stereo not given) |  |  | inactive
COc1cc2c(cc1OC)C(Cl)C(c1ccc(Br)cc1)=C2Cl (stereo not given) |  |  | inactive
CC(C)CC(N)C(=O)NC(CC(=O)O)C(=O)NC(CCCCN)C(=O)NC(C)C(=O)NC(CO)C(=O)NC(Cc1ccc(O)cc1)C(=O)NC(CO)C(=O)NC(C(=O)NC(CC(N)=O)C(=O)NC(Cc1cnc[nH]1)C(=O)O)C(C)O (stereo not given) (H-LDKASYSTNH-OH; configuration not given here) | > 21.9 µM | > 21.9 µM | 

Structure (SMILES) | EC50 | IC50 | outcome
COc1cc(-c2cccs2)sc1-c1cccs1 | > 9.77 µM | > 9.77 µM | 
CN(COC(=O)C(C)(C)C)c1nc(N(C)COC(=O)C(C)(C)C)nc(N(C)COC(=O)C(C)(C)C)n1 | > 100 µM | 18.6 µM | 
CC(=O)NC1C(OCc2ccccc2)OC(CO)C(O)C1OCC(=O)N1CCCC1C(=O)N[C@@H](CCC(=O)NCCCCNc1c2ccccc2nc2cccc([N+](=O)[O-])c12)C(N)=O (stereo not given in full) | > 100 µM | 15.8 µM | 
NNC(=O)c1ccc(-n2nnc(C(=O)NN)c2C(=O)NN)cc1 | > 501 µM | > 501 µM | 
Cc1cc(O)c(C=O)c2c1C(=O)Oc1c(C)c(O)c(C(=O)O)c(C)c1O2 | > 200 µM | 186 µM | 
Cc1nc2nn[nH]n2c(=O)c1CCO | > 200 µM | > 200 µM | 
COC(=O)Cn1c(=O)oc2nc(-c3ccccc3)cc(C(F)(F)F)c21 | > 200 µM | 129 µM | 
O=C1NC(Nc2ccccc2)=NC(C(F)(F)F)(C(F)(F)F)N1 | > 200 µM | 36.3 µM | 
CCC1Sc2cc(OC)cc(N)c2NC1=O (stereo not given) | > 200 µM | > 200 µM | 
CC(=O)Oc1ccc2c(c1)oc1c3ccc(OC(C)=O)cc3n(C)c(=O)c21 | > 200 µM | 107 µM | 
CN(C)C(=S)SN(C)C(=O)Nc1ccccc1 | > 200 µM | 13.2 µM | 
COc1cc2cnc3c4cc(OC)c(OC)cc4ccc3c2cc1OC |  |  | inactive
COc1ccc(CC[N+](C)(C)C)cc1 | > 200 µM | > 200 µM | 
CCc1cccc(C(C)C)c1NC(=O)C(=O)C(c1ccccc1)S(=O)(=O)Cc1ccccc1 (stereo not given) | > 200 µM | > 200 µM | 
CCCCCCCCCCSS(=O)(=O)c1ccc(C)cc1 | > 21.9 µM | 9.55 µM | 
O=C1OC(C(O)CO)C(C(O)CO)OC1=O (stereo not given) | > 200 µM | > 200 µM | 
O=C(O)c1ccccc1C(=O)NC(Cc1ccccc1)(C(=O)O)C(=O)O | > 200 µM | > 200 µM | 
c1ccc2c(c1)CCN2CCN1CCc2ccccc21 | > 200 µM | 145 µM | 
O=C(/C=C/c1cccs1)c1ccccc1Cl | > 200 µM | 11.2 µM | 
CCN(CCCl)CCCNc1c2ccccc2nc2ccc(OC)cc12 | > 20 µM | 0.295 µM | 
C[S+](C)c1ccc(Cl)cc1 | > 871 µM | 69.2 µM | 

Structure (SMILES) | EC50 | IC50 | outcome
CC[N+]12CC[N+](CC)(CC1)C2 | > 708 µM | > 708 µM | 
COc1ccc2nc3cc(Cl)ccc3c(NC(C)CCCN(C)C)c2n1 (stereo not given) | > 2 µM | 1.02 µM | 
Cc1ccc(CCCCCOc2ccc(C3=NCCO3)cc2)s1 |  |  | inactive
C[CH2][Sn]([CH2]C)([O]C(=O)c1ccc(F)cc1)[O][Sn]([CH2]C)([CH2]C)[O]C(=O)c1ccc(F)cc1 | > 8.13 µM | 6.61 µM | 
Cn1c(=O)oc2cc(C(O)CN3CCN(Cc4ccccn4)CC3)c(Cl)cc21 (stereo not given) | > 200 µM | 195 µM | 
NCc1ccc(-c2ccc(CN)s2)s1 | > 28.2 µM | 13.2 µM | 
c1ccc(-c2c3ccccc3[o+]c3ccccc23)cc1 | > 200 µM | 33.1 µM | 
NC(=O)c1ncn(CCN2CCN(C(=O)NCCCCCCNC(=O)N3CCN(CCn4cnc(C(N)=O)c4N)CC3)CC2)c1N |  |  | inactive
COC(=O)/C=C(\C(=O)OC)C1C(=O)Oc2c(C)c(=O)c3ccccc3n21 (stereo not given) | > 200 µM | 60.3 µM | 
CCOC(=O)C1(c2ccccc2)CCCNCC1 (stereo not given) | > 112 µM | > 112 µM | 
O=C1C=C(Nc2ccccc2C(=O)c2ccccc2)c2ccccc2C1=O | > 2.95 µM | > 2.95 µM | 
Nc1ccc2c(c1)C1=NNC(=O)CC1C2 (stereo not given) |  |  | inactive
O=S(=O)(O)c1ccc2cc(N=Nc3cc(S(=O)(=O)O)c4cccnc4c3O)ccc2c1 | 24 µM | > 100 µM | 
COC(C)(C)C/C=C/C(C)=C/C=C/C(C)=C\C=C\C(C)=C\C=C\C=C(C)\C=C\C=C(C)\C=C\C=C(C)\C=C\CC(C)(C)OC |  |  | inactive
C/C(=N\NC(N)=O)C(CN1CCCCC1)C(c1ccccc1)c1c(O)c2ccccc2oc1=O (stereo not given) | > 87.1 µM | 46.8 µM | 
COc1cc2c(oc(=O)c3cc4cc([Si](C)(C)C)oc4c(OC)c32)c2cccc(O)c12 | > 1.2 µM | > 1.2 µM | 
Cc1ccc(/C(O)=C/C(=O)C(=O)NN=C(c2ccccc2)c2ccccc2)cc1 | > 200 µM | 107 µM | 
CC1CC[C@@]23CCC4(C)[C@@](C=CC5[C@@]6(C)CCC(=O)C(C)(C)C6CC[C@]54C)(OC2=O)[C@@H]3[C@H]1C (stereo not given in full) |  |  | inactive
CN(CCN(C)C(=O)CCn1cc(F)c(=O)[nH]c1=O)C(=O)CCn1cc(F)c(=O)[nH]c1=O | > 57.5 µM | > 57.5 µM | 
Cc1c(O)c2ccccc2oc1=O | > 200 µM | > 200 µM | 
